From the NIST ThermoML archive (doi:10.1016/j.jct.2018.11.005)

Details: Liquid; for mass density: Vibrating tube method; for speed of sound: Frequency=5 MHz, Single path-length method

CCC(=O)[O-].CC[NH2+]CCO [N-ethyl-2-hydroxyethylammonium propionate]
Details	mass density [kg/m3]	speed of sound [m/s]
298.14 K, 15000 kPa	1058.3	–
298.14 K, 30000 kPa	1063.5	–
298.15 K, 10000 kPa	1057	–
298.15 K, 25000 kPa	1061.8	–
298.15 K, 35000 kPa	1064.6	–
298.16 K, 100 kPa	1051.9	–
298.16 K, 20000 kPa	1059.9	–
303.08 K, 35000 kPa	1060.7	–
303.12 K, 30000 kPa	1059.2	–
303.14 K, 20000 kPa	1055.6	–
303.14 K, 25000 kPa	1057.4	–
303.15 K, 100 kPa	–	1566.6
303.15 K, 1000 kPa	–	1570.6
303.15 K, 2000 kPa	–	1574.6
303.15 K, 3000 kPa	–	1578.7
303.15 K, 4000 kPa	–	1582.8
303.15 K, 5000 kPa	–	1586.9
303.15 K, 6000 kPa	–	1589.6
303.15 K, 7000 kPa	–	1592.4
303.15 K, 8000 kPa	–	1595.1
303.15 K, 9000 kPa	–	1599.3
303.15 K, 10000 kPa	1052.1	1603.5
303.15 K, 11000 kPa	–	1607.7
303.15 K, 12000 kPa	–	1611.9
303.15 K, 13000 kPa	–	1616.1
303.15 K, 14000 kPa	–	1620.3
303.15 K, 15000 kPa	1053.4	1623.2
303.15 K, 16000 kPa	–	1627.4
303.15 K, 17000 kPa	–	1631.7
303.15 K, 18000 kPa	–	1634.6
303.15 K, 19000 kPa	–	1637.5
303.15 K, 20000 kPa	–	1640.4
303.16 K, 100 kPa	1046.7	–
313.07 K, 25000 kPa	1047.8	–
313.07 K, 30000 kPa	1049.6	–
313.07 K, 35000 kPa	1051.4	–
313.09 K, 10000 kPa	1041.8	–
313.09 K, 20000 kPa	1045.6	–
313.11 K, 15000 kPa	1043.2	–
313.14 K, 100 kPa	1035.6	–
313.15 K, 100 kPa	–	1535.6
313.15 K, 1000 kPa	–	1539.4
313.15 K, 2000 kPa	–	1543.3
313.15 K, 3000 kPa	–	1547.2
313.15 K, 4000 kPa	–	1552.4
313.15 K, 5000 kPa	–	1555
313.15 K, 6000 kPa	–	1560.3
313.15 K, 7000 kPa	–	1564.2
313.15 K, 8000 kPa	–	1568.2
313.15 K, 9000 kPa	–	1572.2
313.15 K, 10000 kPa	–	1576.2
313.15 K, 11000 kPa	–	1578.9
313.15 K, 12000 kPa	–	1583
313.15 K, 13000 kPa	–	1587.1
313.15 K, 14000 kPa	–	1591.1
313.15 K, 15000 kPa	–	1595.3
313.15 K, 16000 kPa	–	1599.4
313.15 K, 17000 kPa	–	1603.5
313.15 K, 18000 kPa	–	1607.7
313.15 K, 19000 kPa	–	1610.5
313.15 K, 20000 kPa	–	1614.7
323.15 K, 100 kPa	1024.4	1504.9
323.15 K, 1000 kPa	–	1508.6
323.15 K, 2000 kPa	–	1512.4
323.15 K, 3000 kPa	–	1517.3
323.15 K, 4000 kPa	–	1522.4
323.15 K, 5000 kPa	–	1527.4
323.15 K, 6000 kPa	–	1531.2
323.15 K, 7000 kPa	–	1535
323.15 K, 8000 kPa	–	1538.9
323.15 K, 9000 kPa	–	1542.8
323.15 K, 10000 kPa	–	1546.6
323.15 K, 11000 kPa	–	1550.5
323.15 K, 12000 kPa	–	1555.7
323.15 K, 13000 kPa	–	1559.7
323.15 K, 14000 kPa	–	1563.6
323.15 K, 15000 kPa	1032.6	1566.3
323.15 K, 16000 kPa	–	1570.3
323.15 K, 17000 kPa	–	1572.9
323.15 K, 18000 kPa	–	1575.6
323.15 K, 19000 kPa	–	1579.6
323.15 K, 20000 kPa	1035.2	1583.7
323.15 K, 25000 kPa	1037.2	–
323.15 K, 30000 kPa	1039.3	–
323.15 K, 35000 kPa	1041.5	–
323.16 K, 10000 kPa	1030.5	–
333.14 K, 10000 kPa	1018	–
333.15 K, 100 kPa	–	1485.5
333.15 K, 1000 kPa	–	1489.2
333.15 K, 2000 kPa	–	1494.2
333.15 K, 3000 kPa	–	1497.9
333.15 K, 4000 kPa	–	1500.5
333.15 K, 5000 kPa	–	1503
333.15 K, 6000 kPa	–	1508
333.15 K, 7000 kPa	–	1511.8
333.15 K, 8000 kPa	–	1514.4
333.15 K, 9000 kPa	–	1519.4
333.15 K, 10000 kPa	–	1523.2
333.15 K, 11000 kPa	–	1525.8
333.15 K, 12000 kPa	–	1530.9
333.15 K, 13000 kPa	–	1533.5
333.15 K, 14000 kPa	–	1536.1
333.15 K, 15000 kPa	1021	1540
333.15 K, 16000 kPa	–	1542.6
333.15 K, 17000 kPa	–	1546.5
333.15 K, 18000 kPa	–	1550.4
333.15 K, 19000 kPa	–	1553
333.15 K, 20000 kPa	–	1555.6
333.15 K, 30000 kPa	1028.8	–
333.15 K, 35000 kPa	1031.3	–
333.16 K, 100 kPa	1011.9	–
333.16 K, 20000 kPa	1023.7	–
333.16 K, 25000 kPa	1026.2	–
343.14 K, 15000 kPa	1008.7	–
343.14 K, 25000 kPa	1014.3	–
343.15 K, 100 kPa	–	1450.5
343.15 K, 1000 kPa	–	1454.2
343.15 K, 2000 kPa	–	1458
343.15 K, 3000 kPa	–	1461.8
343.15 K, 4000 kPa	–	1466.7
343.15 K, 5000 kPa	–	1470.5
343.15 K, 6000 kPa	–	1474.3
343.15 K, 7000 kPa	–	1478.1
343.15 K, 8000 kPa	–	1481.9
343.15 K, 9000 kPa	–	1485.7
343.15 K, 10000 kPa	–	1489.5
343.15 K, 11000 kPa	–	1493.3
343.15 K, 12000 kPa	–	1497.2
343.15 K, 13000 kPa	–	1501
343.15 K, 14000 kPa	–	1504.8
343.15 K, 15000 kPa	–	1507.4
343.15 K, 16000 kPa	–	1511.2
343.15 K, 17000 kPa	–	1516.3
343.15 K, 18000 kPa	–	1520.1
343.15 K, 19000 kPa	–	1524
343.15 K, 20000 kPa	–	1526.6
343.17 K, 100 kPa	998.8	–
343.17 K, 10000 kPa	1004.6	–
343.17 K, 30000 kPa	1017.4	–
343.19 K, 35000 kPa	1020.1	–
343.21 K, 20000 kPa	1011.2	–
353.15 K, 100 kPa	–	1416
353.15 K, 1000 kPa	–	1419.9
353.15 K, 2000 kPa	–	1423.8
353.15 K, 3000 kPa	–	1428.9
353.15 K, 4000 kPa	–	1434
353.15 K, 5000 kPa	–	1438
353.15 K, 6000 kPa	–	1443.1
353.15 K, 7000 kPa	–	1447
353.15 K, 8000 kPa	–	1451
353.15 K, 9000 kPa	–	1456.1
353.15 K, 10000 kPa	–	1460
353.15 K, 11000 kPa	–	1465.1
353.15 K, 12000 kPa	–	1469
353.15 K, 13000 kPa	–	1471.8
353.15 K, 14000 kPa	–	1476.9
353.15 K, 15000 kPa	–	1480.8
353.15 K, 16000 kPa	–	1484.7
353.15 K, 17000 kPa	–	1488.6
353.15 K, 18000 kPa	–	1492.5
353.15 K, 19000 kPa	–	1496.4
353.15 K, 20000 kPa	–	1500.2
